Common to all, as to format: cell-based
Series [1] concerns Mycobacterium avium ATCC 25291. In words: Microplate Alamar Blue assay (MABA) MIC, M. avium. As to conditions: ATCC25291, M. avium ATCC 25291. An excerpt:
(§1) Minimal inhibitory concentrations (MICs) in Mycobacterium tuberculosis H37Rv and Mycobacterium avium ATCC 25291 were quantified using microplate Alamar Blue assays as described (MABA; [Collins, L. & Franzblau, S. (1997) Microplate Alamar Blue assay versus BACTEC 460 system for high-throughput screening of compounds against Mycobacterium tuberculosis and Mycobacterium avium. Antimicrob. Agents Chemother. 41, 1004-1009]).
A general note: The colour change of resazurin is a common sign of viable cells or microbes.

In series [2] the test system is Mycobacterium tuberculosis H37Rv. In words: Microplate Alamar Blue assay (MABA) MIC, M. tuberculosis. As to conditions: read-out: MIC Mycobacterium tuberculosis H37Rv.
Text: as §1

Series [3] deals with Vero E6 ATCC CRL1586 cells. The experiment in a line: Mammalian-cell cytotoxicity, minimal cytotoxic concentration (CellTiter96). On the procedure:
Minimal cytotoxic concentrations (MCCs) against mammalian cells in culture were determined using Vero E6 ATCC CRL1586 cells and the CellTiter96 assay kit (Promega, Inc.). […]

Series [4] has as its system Mycobacterium smegmatis ATCC 19420. In words: Broth microdilution MIC, M. smegmatis. The conditions noted are these: Mycolicibacterium smegmatis, ATCC19420, M. smegmatis ATCC 19420; read-out: MIC Mycobacterium smegmatis ATCC 19420. The source says: MICs in Mycobacterium smegmatis ATCC 19420 and Mycobacterium smegmatis ATCC 19420 derivatives were quantified using broth microdilution assays as described [Clinical and Laboratory Standards Institute (CLSI/NCCLS) (2009) Methods for Dilution Antimicrobial Susceptibility Tests for Bacteria That Grow Aerobically; Approved Standard, Eighth Edition. CLIS Document M07-A8 (CLIS, Wayne Pa.)].

Experimental findings from patent US9919998B2, “Antibacterial agents: Nα-aroyl-N-aryl-phenylalaninamides” (priority 2014, dated 2018) are described below.

The structures appear in SMILES notation. In brackets after ≈: the same amount, converted by molar mass. Bounds are passed on as bounds.

The MIC is the lowest concentration found to suppress growth.

With `CC(C)Oc1ccccc1NC(=O)C(Cc1ccccc1)NC(=O)c1ccccc1` (stereo not shown) [I-50], the results for the MIC in series [1], in series [2] and in series [4] were more than 50 µg/mL, 12.5 µg/mL (≈ 31.1 µM) and 0.78 µg/mL (≈ 1.94 µM), respectively. Besides, the “MCC mammalian cells Vero E6 ATCC CRL1586” value in series [3] was more than 100 µg/mL.

With `Cc1c(NC(=O)C(Cc2ccccc2)NC(=O)c2ccccc2)cccc1OC(C)C` (stereo not shown) [I-51], the MIC is more than 50 µg/mL in series [1], more than 50 µg/mL in series [2] and 1.56 µg/mL (≈ 3.75 µM) in series [4]. In addition, in series [3], the “MCC mammalian cells Vero E6 ATCC CRL1586” value was more than 100 µg/mL.

As to `O=C(NC(Cc1ccccc1)C(=O)Nc1ccccc1OC(F)F)c1ccccc1` (stereo not shown) [I-61, N-(1-((2-(difluoromethoxy)phenyl)amino)-1-oxo-3-phenylpropan-2-yl)benzamide], the MIC came to 6.25 µg/mL (≈ 15.2 µM) in series [1], 6.25 µg/mL (≈ 15.2 µM) in series [2] and 0.39 µg/mL (≈ 0.95 µM) in series [4]. Moreover, in series [3], the “MCC mammalian cells Vero E6 ATCC CRL1586” value is more than 100 µg/mL.

As to `Cc1ccccc1NC(=O)C(Cc1ccccc1)NC(=O)c1cccc(OC(F)F)c1` (stereo not shown) [I-70], the MIC in series [1] is more than 50 µg/mL; in series [2], 6.25 µg/mL (≈ 14.7 µM); in series [4], 50 µg/mL (≈ 118 µM). Further, the “MCC mammalian cells Vero E6 ATCC CRL1586” value in series [3] was determined as 90 µg/mL.

Regarding `Cc1c(F)cccc1NC(=O)C(Cc1ccccc1)NC(=O)c1ccccc1` (stereo not shown) [I-73], the results for the MIC in series [1], in series [2] and in series [4] were more than 50 µg/mL, more than 50 µg/mL and 0.78 µg/mL (≈ 2.07 µM), respectively. Moreover, the “MCC mammalian cells Vero E6 ATCC CRL1586” value in series [3] stood at 19 µg/mL.

For `Cc1cccc(NC(=O)C(Cc2ccccc2)NC(=O)c2ccccc2)c1C` (stereo not shown) [I-105], the MIC in series [1] came to 12.5 µg/mL (≈ 33.6 µM); in series [2] it was 3.12 µg/mL (≈ 8.39 µM); in series [4], 0.39 µg/mL (≈ 1.05 µM). Besides, the “MCC mammalian cells Vero E6 ATCC CRL1586” value in series [3] came to 21 µg/mL.

`CCc1cccc(NC(=O)C(Cc2ccccc2)NC(=O)c2ccccc2)c1C` (stereo not shown) [I-116]: the MIC turned out to be 6.25 µg/mL (≈ 16.2 µM) in series [1], 6.25 µg/mL (≈ 16.2 µM) in series [2] and 0.78 µg/mL (≈ 2.02 µM) in series [4]. Also, the “MCC mammalian cells Vero E6 ATCC CRL1586” value in series [3] stood at 90 µg/mL.

Take `CCc1ccccc1C(=O)NC(Cc1ccccc1)C(=O)Nc1ccccc1C` (stereo not shown) [I-123]: the MIC in series [1] was more than 50 µg/mL; in series [2], more than 50 µg/mL; in series [4], 1.56 µg/mL (≈ 4.04 µM). In series [3], the “MCC mammalian cells Vero E6 ATCC CRL1586” value is more than 100 µg/mL.

As to `CCCc1ccccc1NC(=O)C(Cc1ccccc1)NC(=O)c1ccccc1` (stereo not shown) [I-126], the MIC in series [1] was more than 50 µg/mL; in series [2], more than 50 µg/mL; in series [4], 1.56 µg/mL (≈ 4.04 µM). Further, the “MCC mammalian cells Vero E6 ATCC CRL1586” value in series [3] worked out at 10 µg/mL.

Take `CCCc1cccc(NC(=O)C(Cc2ccccc2)NC(=O)c2ccccc2)c1C` (stereo not shown) [I-127]: the minimal inhibitory concentration (MIC) in series [1] is more than 50 µg/mL; in series [2], more than 50 µg/mL; in series [4], 3.12 µg/mL (≈ 7.8 µM). In addition, the “MCC mammalian cells Vero E6 ATCC CRL1586” value in series [3] came to 100 µg/mL.

With `Cc1c(NC(=O)C(Cc2ccccc2)NC(=O)c2ccccc2)cccc1C(C)C` (stereo not shown) [I-138], the MIC in series [1] is more than 50 µg/mL; in series [2], 6.25 µg/mL (≈ 15.6 µM); in series [4], 0.78 µg/mL (≈ 1.95 µM). Besides, the “MCC mammalian cells Vero E6 ATCC CRL1586” value in series [3] was more than 100 µg/mL.

In the case of `O=C(NC(Cc1ccccc1)C(=O)Nc1ccccc1C(F)F)c1ccccc1` (stereo not shown) [I-148], the MIC is more than 50 µg/mL in series [1], 6.25 µg/mL (≈ 15.8 µM) in series [2] and 3.12 µg/mL (≈ 7.92 µM) in series [4]. The “MCC mammalian cells Vero E6 ATCC CRL1586” value in series [3] was 100 µg/mL.

Turning to `Cc1c(NC(=O)C(Cc2ccccc2)NC(=O)c2ccccc2)cccc1C(F)F` (stereo not shown) [I-149], the figures for the MIC in series [1], in series [2] and in series [4] were more than 50 µg/mL, more than 50 µg/mL and 0.39 µg/mL (≈ 0.955 µM), respectively. In addition, the “MCC mammalian cells Vero E6 ATCC CRL1586” value in series [3] amounted to 20 µg/mL.

As for `O=C(NC(Cc1ccccc1)C(=O)Nc1ccccc1N1CCCC1)c1ccccc1` (stereo not shown) [I-192], the results for the MIC in series [1], in series [2] and in series [4] were 25 µg/mL (≈ 60.5 µM), 9.4 µg/mL (≈ 22.7 µM) and 0.78 µg/mL (≈ 1.89 µM), respectively. Also, the “MCC mammalian cells Vero E6 ATCC CRL1586” value in series [3] is more than 100 µg/mL.

As to `Cc1c(NC(=O)C(Cc2ccccc2)NC(=O)c2ccccc2)cccc1N1CCCC1` (stereo not shown) [I-193], the values for the minimal inhibitory concentration (MIC) in series [1], in series [2] and in series [4] were 50 µg/mL (≈ 117 µM), 6.25 µg/mL (≈ 14.6 µM) and 6.25 µg/mL (≈ 14.6 µM), respectively. For the same compound, the “MCC mammalian cells Vero E6 ATCC CRL1586” value in series [3] was more than 100 µg/mL.

Regarding `O=C(NC(Cc1ccccc1)C(=O)Nc1ccccc1-n1cncn1)c1ccccc1` (stereo not shown) [I-203], the MIC was 50 µg/mL (≈ 122 µM) in series [1], 12.5 µg/mL (≈ 30.4 µM) in series [2] and 0.78 µg/mL (≈ 1.9 µM) in series [4]. Further, the “MCC mammalian cells Vero E6 ATCC CRL1586” value in series [3] is more than 100 µg/mL.

Take `O=C(NC(Cc1ccccc1)C(=O)Nc1cccc2[nH]ccc12)c1ccccc1` (stereo not shown) [II-27]: the MIC in series [1] is more than 50 µg/mL; in series [2], 12.5 µg/mL (≈ 32.6 µM); in series [4], 0.39 µg/mL (≈ 1.02 µM). Moreover, the “MCC mammalian cells Vero E6 ATCC CRL1586” value in series [3] is 41 µg/mL.

Take `O=C(NC(Cc1ccccc1)C(=O)Nc1cccc2sccc12)c1ccccc1` (stereo not shown) [II-46]: the minimum inhibitory concentration (MIC) in series [1] stood at 3.12 µg/mL (≈ 7.8 µM); in series [2] it was 3.12 µg/mL (≈ 7.8 µM); in series [4] it was 0.195 µg/mL (≈ 0.487 µM). The “MCC mammalian cells Vero E6 ATCC CRL1586” value in series [3] was more than 100 µg/mL.

`O=C(NC(Cc1ccccc1)C(=O)Nc1cccc2ccsc12)c1ccccc1` (stereo not shown) [II-47]: the values for the MIC in series [1], in series [2] and in series [4] were 3.12 µg/mL (≈ 7.8 µM), 1.56 µg/mL (≈ 3.9 µM) and 1.56 µg/mL (≈ 3.9 µM), respectively. Also, the “MCC mammalian cells Vero E6 ATCC CRL1586” value in series [3] was more than 100 µg/mL.

Consider `O=C(NC(Cc1ccccc1)C(=O)Nc1cccc2ccoc12)c1ccccc1` (stereo not shown) [II-65], for which the MIC was more than 50 µg/mL in series [1], more than 50 µg/mL in series [2] and 0.39 µg/mL (≈ 1.01 µM) in series [4]. Moreover, in series [3], the “MCC mammalian cells Vero E6 ATCC CRL1586” value came out at 78 µg/mL.

As for `O=C(NC(Cc1ccc(O)cc1)C(=O)Nc1cccc2c1CCCC2)c1ccccc1` (stereo not shown) [IX-6, N-(3-(4-hydroxyphenyl)-1-oxo-1-((5,6,7,8-tetrahydronaphthalen-1-yl)amino)propan-2-yl)benzamide], the minimal inhibitory concentration (MIC) in series [1] stood at 6.25 µg/mL (≈ 15.1 µM); in series [2], 6.25 µg/mL (≈ 15.1 µM); in series [4], 1.56 µg/mL (≈ 3.76 µM). Also, in series [3], the “MCC mammalian cells Vero E6 ATCC CRL1586” value amounted to 21 µg/mL.

As for `O=C(NC(Cc1ccccc1)C(=O)Nc1cccc2ccncc12)c1ccccc1` (stereo not shown) [IX-15, N-(1-(isoquinolin-8-ylamino)-1-oxo-3-phenylpropan-2-yl)benzamide], the figures for the MIC in series [1], in series [2] and in series [4] were 25 µg/mL (≈ 63.2 µM), 6.25 µg/mL (≈ 15.8 µM) and 0.78 µg/mL (≈ 1.97 µM), respectively. Besides, the “MCC mammalian cells Vero E6 ATCC CRL1586” value in series [3] worked out at 85 µg/mL.

`O=C(NC(Cc1ccc(O)cc1)C(=O)Nc1cccc2ccncc12)c1ccccc1` (stereo not shown) [IX-18, N-(3-(4-hydroxyphenyl)-1-(isoquinolin-8-ylamino)-1-oxopropan-2-yl)benzamide]: the MIC in series [1] came out at 12.5 µg/mL (≈ 30.4 µM); in series [2], 6.25 µg/mL (≈ 15.2 µM); in series [4], 0.39 µg/mL (≈ 0.948 µM). The “MCC mammalian cells Vero E6 ATCC CRL1586” value in series [3] is more than 100 µg/mL.

In the case of `O=C(NC(Cc1ccc(O)cc1)C(=O)Nc1cccc2c1OCCO2)c1ccccc1` (stereo not shown) [IX-21, N-(1-((2,3-dihydrobenzo[b][1,4]dioxin-5-yl)amino)-3-(4-hydroxyphenyl)-1-oxopropan-2-yl)benzamide], the MIC came to 6.25 µg/mL (≈ 14.9 µM) in series [1], 6.25 µg/mL (≈ 14.9 µM) in series [2] and 0.78 µg/mL (≈ 1.86 µM) in series [4]. The “MCC mammalian cells Vero E6 ATCC CRL1586” value in series [3] was more than 100 µg/mL.

Consider `COc1ccccc1NC(=O)C(Cc1ccc(O)cc1)NC(=O)c1ccccc1` (stereo not shown) [IX-26, N-(3-(4-hydroxyphenyl)-1-((2-methoxyphenyl)amino)-1-oxopropan-2-yl)benzamide], for which the MIC in series [1] was 50 µg/mL (≈ 128 µM); in series [2] it was 25 µg/mL (≈ 64 µM); in series [4], 1.25 µg/mL (≈ 3.2 µM). The “MCC mammalian cells Vero E6 ATCC CRL1586” value in series [3] was more than 100 µg/mL.
